Source: US8318770B2, “Tetrahydroquinoline indole derivatives and uses thereof” (Roche Palo Alto LLC, priority 2009, dated 2012)
pKi: −log10 of the molar value.

Assays:
Format in all cases: binding
[1] = molecular target: T1, human serotonin transporter (hSERT) (Homo sapiens, UniProt P31645); assay: Human serotonin transporter (hSERT) scintillation proximity assay, competition with [3H]-Citalopram; conditions: membranes of HEK-293 cells expressing recombinant hSERT, Ki by Cheng-Prusoff
T1 construct: expressed in transfected cells; host or cells: HEK-293
T1 sequence (P31645 whole entry): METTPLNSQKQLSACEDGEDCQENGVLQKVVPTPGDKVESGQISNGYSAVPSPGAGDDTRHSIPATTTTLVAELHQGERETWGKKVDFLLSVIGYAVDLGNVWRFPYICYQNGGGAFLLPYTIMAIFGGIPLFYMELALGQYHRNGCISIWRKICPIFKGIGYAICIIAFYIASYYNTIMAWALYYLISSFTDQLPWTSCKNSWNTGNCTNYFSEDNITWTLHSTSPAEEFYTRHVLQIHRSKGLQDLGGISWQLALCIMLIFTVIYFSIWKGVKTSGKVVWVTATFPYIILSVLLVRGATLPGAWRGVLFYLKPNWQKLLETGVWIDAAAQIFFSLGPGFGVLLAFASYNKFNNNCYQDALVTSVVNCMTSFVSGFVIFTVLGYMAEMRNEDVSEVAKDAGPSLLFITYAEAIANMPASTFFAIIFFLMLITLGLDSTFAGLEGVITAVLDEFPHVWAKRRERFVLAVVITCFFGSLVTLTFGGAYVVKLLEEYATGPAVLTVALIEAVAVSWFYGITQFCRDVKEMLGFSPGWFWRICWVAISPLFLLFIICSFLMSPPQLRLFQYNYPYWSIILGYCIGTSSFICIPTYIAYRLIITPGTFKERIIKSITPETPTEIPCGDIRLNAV
Method: The screening assay of this example was used to determine the affinity of ligands at the hSERT transporter by competition with [^3H]-Citalopram.
Scintillation Proximity Assay (SPA) works by bringing radioligand within close proximity to the bead's scintillant to stimulate light emission. In this assay, the receptor-containing membranes were pre-coupled to the SPA beads and the binding of the appropriate radioligand to the transporter was measured. The light emission was proportional to the amount of bound radioligand. Unbound radioligand produced no signal as a result of distant proximity to scintillant (lack of energy transfer). […]
(§1) Cell membranes were prepared using a membrane preparation buffer of 50 mM TRIS (pH 7.4). […] After a second centrifugation, the pellet was re-homogenized and brought to a final volume determined during the assay. […]
The % inhibition was calculated for each compound tested [(Compound counts per minute (CPM) at maximum concentration-Non-Specific CPM)/Total CPM*100]. […]
(§2) [formula] where max=total binding, min=non specific binding, x=concentration (M) of the tested compound and n=Hill slope. The inhibition dissociation constant (Ki) of each compound was determined according to the method of Cheng-Prusoff and then converted into negative logarithm (pKi) of the Ki.

[2] = molecular target: T2, human norepinephrine transporter (hNET) (Homo sapiens, UniProt P23975); assay: Human norepinephrine transporter (hNET) scintillation proximity assay, competition with [3H]-Nisoxetine; conditions: membranes of HEK-293 cells expressing recombinant hNET, Ki by Cheng-Prusoff
T2 construct: expressed in transfected cells; host or cells: HEK-293 (Clone: HEK-hNET #2)
T2 sequence (P23975 whole entry): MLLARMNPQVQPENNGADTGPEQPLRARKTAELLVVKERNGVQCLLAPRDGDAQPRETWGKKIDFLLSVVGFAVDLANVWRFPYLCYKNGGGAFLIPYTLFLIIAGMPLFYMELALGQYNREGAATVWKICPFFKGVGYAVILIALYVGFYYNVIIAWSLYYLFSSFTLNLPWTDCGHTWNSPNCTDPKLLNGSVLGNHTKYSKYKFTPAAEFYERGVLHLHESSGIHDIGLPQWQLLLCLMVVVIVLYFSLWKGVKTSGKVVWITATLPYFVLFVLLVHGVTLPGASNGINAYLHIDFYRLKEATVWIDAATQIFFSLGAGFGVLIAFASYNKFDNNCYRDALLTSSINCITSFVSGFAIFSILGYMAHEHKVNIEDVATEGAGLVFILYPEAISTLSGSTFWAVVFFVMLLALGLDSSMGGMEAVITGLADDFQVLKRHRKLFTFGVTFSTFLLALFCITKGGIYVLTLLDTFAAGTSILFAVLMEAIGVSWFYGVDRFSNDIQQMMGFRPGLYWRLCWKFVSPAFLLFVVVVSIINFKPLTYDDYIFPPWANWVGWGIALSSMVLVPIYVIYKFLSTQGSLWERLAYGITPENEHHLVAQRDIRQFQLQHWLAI
Method: This assay was used to determine the affinity of ligands for the hNET transporter by competition with [^3H]-Nisoxetine. As in the hSERT assay of the above example, receptor-containing membranes were pre-coupled to the SPA beads and the binding of the appropriate radioligand to the transporter was measured. The light emission was proportional to the amount of bound radioligand, with unbound radioligand producing no signal.
HEK-293 cells (Tatsumi et al., Eur. J. Pharmacol. 1997, 30, 249-258) stably expressing recombinant hNET (Clone: HEK-hNET #2) were maintained with media (DMEM hi glucose with 10% FBS, 300 ug/ml G418 and 2 mM L-Glutamine) and incubated at 37° C. with 5% CO2. Cells were released from culture flasks using PBS for 1-2 minutes. […]
as §1
^3[H] […] The mixtures were allowed to stand at room temperature for one hour, and were then counted on a Packard TopCount LCS, a generic SPA counting protocol settings (Energy Range: Low, Efficiency Mode: Normal, Region A: 1.50-35.00, Region B: 1.50-256.00, Count Time (min.): 0.40, Background Subtract: none, Half-Life Correction: no, Quench Indicator: tSIS, Platemap blank subtraction: No, Cross talk reduction: Off). […]

[3] = molecular target: T3, human dopamine transporter (hDAT) (Homo sapiens, UniProt Q01959); assay: Human dopamine transporter (hDAT) scintillation proximity assay, competition with [3H]-Vanoxerine; conditions: HEK-293 cells expressing recombinant hDAT, Ki by Cheng-Prusoff
T3 construct: expressed in transfected cells; host or cells: HEK-293
T3 sequence (Q01959 whole entry): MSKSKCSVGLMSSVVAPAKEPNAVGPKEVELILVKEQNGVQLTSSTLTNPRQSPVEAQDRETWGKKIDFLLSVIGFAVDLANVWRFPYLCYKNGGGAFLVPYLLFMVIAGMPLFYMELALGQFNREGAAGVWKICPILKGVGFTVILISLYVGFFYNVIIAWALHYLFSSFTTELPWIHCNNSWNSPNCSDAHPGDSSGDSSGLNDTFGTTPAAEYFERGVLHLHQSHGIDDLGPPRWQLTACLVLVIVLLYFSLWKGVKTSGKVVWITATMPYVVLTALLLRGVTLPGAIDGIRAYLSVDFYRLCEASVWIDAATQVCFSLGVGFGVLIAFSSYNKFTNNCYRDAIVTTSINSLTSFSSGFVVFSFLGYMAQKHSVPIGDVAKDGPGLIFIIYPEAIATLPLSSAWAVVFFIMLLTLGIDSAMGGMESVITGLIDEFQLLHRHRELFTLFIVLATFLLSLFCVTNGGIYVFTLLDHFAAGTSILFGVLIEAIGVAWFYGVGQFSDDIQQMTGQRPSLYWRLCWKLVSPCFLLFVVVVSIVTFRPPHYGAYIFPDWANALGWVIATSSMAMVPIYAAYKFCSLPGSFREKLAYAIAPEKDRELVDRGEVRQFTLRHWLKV
Method: This assay was used to determine the affinity of ligands for the dopamine transporter by competition with [^3H]-Vanoxerine.
HEK-293 cells (Tatsumi et al., Eur. J. Pharmacol. 1997, 30, 249-258) stably expressing recombinant hDAT were maintained with media (DMEM hi glucose with 10% FBS, […] G418 and 2 mM L-Glutamine) and incubated at 37° C. with 5% CO2. Cells were plated four hours prior to experiment by placing approximately 30,000 cells per well (in PBS) on white, opaque Cell-Tak coated 96 well plates. Extra buffer was apriated from the cell plates using an ELx405 plate washer.
^3[H] vanoxerine (GBR 12909) radioligand, specific activity approximately 59 Ci/mmol, stock concentration, 400 nM, and 50 mM Tris-HCl, 300 mM NaCl, (pH 7.4) buffers were used for Scintillation Proximity Assay IC50/Ki determination. […]
The % inhibition was calculated for each compound tested [(Compound CPM at maximum concentration-Non-Specific CPM)/Total CPM*100]. […]
as §2

- pKi [1]: ~7.48
- pKi [2]: ~7.81
- pKi [3]: ~7.85
SMILES: CNC1CCN(c2ccc3[nH]ccc3c2)c2ccccc21 (stereo not drawn) [[1-(1H-Indol-5-yl)-1,2,3,4-tetrahydro-quinolin-4-yl]-methyl-amine]
